# Results reported in US11066447B2, “Aureobasidium derivatives and methods of synthesis” (AureoGen Biosciences, Inc., priority 2016, dated 2021).
# Like-named read-outs stand apart in the source and are kept apart here. Numbered stars: 1 amine (or outer) side, 2 acyl side, 3 side chain; on linkers, the order of the positions; unused ones are H or OH. Square brackets hold non-standard residues; d marks the D form. Peptide text beside a SMILES is read from it. X19 = CN([C@@H](Cc1cccc(-c2ccc(OCc3ccccc3)cc2)c1)C(=O)[*:2])[*:1]; X2 = CN1CCN(c2ccc(-c3cccc(C[C@@H](C(=O)[*:2])N(C)[*:1])c3)cc2)CC1; X23 = CN([C@@H](Cc1cccc(-c2cccc3c2cnn3C)c1)C(=O)[*:2])[*:1]; Hmp(2R,3S) = CC[C@H](C)[C@@H](O)C(=O)O; NMeVal(β-OH) = CN[C@H](C(=O)O)C(C)(C)O; NMeV = CN[C@H](C(=O)O)C(C)C
# Assays:
# [1] = tested on: C. parapsilosis MMX 2323 ATCC 22019; assay: MIC assay (CLSI microdilution); type: cell-based, Candida parapsilosis
# Summary of the method: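 Broth microdilution MIC testing of Candida parapsilosis ATCC 22019 followed CLSI methods in RPMI-1640, with or without 0.002% Tween-80. Yeast grown 48 hours at 35° C on Sabouraud dextrose agar was suspended to a 0.5 McFarland standard and diluted 1:100 to roughly 0.5-2.5×10^3 CFU/mL. The MIC was the lowest concentration preventing visible growth.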
# [2] = tested on: A. flavus MMX 5948; assay: MIC/MEC assay (CLSI microdilution); type: cell-based; conditions: Aspergillus flavus
# Summary of the method: (§1)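 CLSI broth microdilution in RPMI-1640 with 0.002% Tween-80; MMX 5280 was also tested without Tween-80. AbA compounds were two-fold serially diluted in 95% ethanol. Aspergillus spore inoculum was approx. 0.2-2.5×10^4 CFU/mL final.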
# [3] = tested on: A. fumigatus MMX 6782 ATCC 13073; assay: MIC/MEC assay (CLSI microdilution); type: cell-based; conditions: Aspergillus fumigatus
# Summary of the method: as §1
# [4] = tested on: A. niger MMX 0624 ATCC 16888; assay: MIC/MEC assay (CLSI microdilution); type: cell-based
# Summary of the method: as §1
# [5] = tested on: A. fumigatus MMX 5280 ATCC MYA-3626; assay: MIC/MEC assay (CLSI microdilution); type: cell-based, Aspergillus fumigatus
# Summary of the method: as §1
# [6] = tested on: C. albicans MMX 2000 ATCC 10231; assay: MIC assay (CLSI microdilution); type: cell-based; conditions: Candida albicans
# [7] = tested on: C. neoformans MMX 0634 ATCC 90112; assay: MIC assay (CLSI microdilution); type: cell-based; conditions: Cryptococcus neoformans, read-out: MIC
# [8] = tested on: A. fumigatus MMX 5944; assay: MIC/MEC assay (CLSI microdilution); type: cell-based
# Summary of the method: as §1
# [9] = tested on: A. fumigatus MMX 6781 ATCC MYA-4609; assay: MIC/MEC assay (CLSI microdilution); type: cell-based; conditions: Aspergillus fumigatus
# Summary of the method: as §1
# [10] = tested on: A. fumigatus from Aureogen; assay: MIC/MEC assay (CLSI microdilution); type: cell-based; conditions: Aspergillus fumigatus
# Summary of the method: as §1
# [11] = tested on: C. albicans MMX 2000 ATCC 10231; assay: MIC assay (CLSI microdilution); type: cell-based; conditions: Candida albicans, ATCC10231, RPMI plus 0.002% Tween-80; read-out: MIC
# [12] = MMX5948, 48 h, RPMI plus 0.002% Tween-80
# [13] = RPMI plus 0.002% Tween-80, 48 hr
# [14] = ATCC90112, RPMI plus 0.002% Tween-80
# [15] = ATCC22019, RPMI plus 0.002% Tween-80, read-out: MIC
# [16] = ATCC22019, Without Tween-80, read-out: MIC
# [17] = RPMI plus 0.002% Tween-80, 48 hr, read-out: MIC
# [18] = Aspergillus fumigatus, 48 h, RPMI plus 0.002% Tween-80, read-out: MEC
# [19] = Aspergillus fumigatus, 48 h, Without Tween-80, read-out: MEC
# [20] = 48 h, RPMI plus 0.002% Tween-80, read-out: MIC
structure (smiles),measurement,setting,value
"CC[C@H](C)[C@@H]1NC(=O)[C@@H]2CCCN2C(=O)[C@H](Cc2cccc(-c3ccc(OCc4ccccc4)cc3)c2)N(C)C(=O)[C@H](Cc2ccccc2)NC(=O)[C@H](C(C)C)N(C)C(=O)[C@@H]([C@@H](C)CC)OC(=O)[C@H](C(C)(C)O)N(C)C(=O)[C@H](CC(C)C)NC(=O)[C@H](C(C)C)N(C)C1=O [Compound 13] (cyclo(F[X19]PI[NMeV]L[NMeVal(β-OH)][Hmp(2R,3S)][NMeV]))",MIC,"[1]; ATCC22019, RPMI plus 0.002% Tween-80",> 64 µg/mL
same,MIC,"[1]; ATCC22019, Without Tween-80",> 64 µg/mL
same,MIC,[2]; [12],> 64 µg/mL
same,MIC,"[3]; ATCC13073, 48 h, RPMI plus 0.002% Tween-80",> 64 µg/mL
same,minimal effective concentration,"[3]; ATCC13073, 48 h, read-out: MEC, RPMI plus 0.002% Tween-80",1 µg/mL
same,MEC,[4]; [13],2 µg/mL
same,MIC,[4]; [13],8 µg/mL
same,minimal effective concentration,"[5]; Aspergillus fumigatus, 48 h, read-out: MEC, RPMI plus 0.002% Tween-80",> 64 µg/mL
same,minimal effective concentration,"[5]; Aspergillus fumigatus, 48 h, read-out: MEC, Without Tween-80",> 64 µg/mL
same,MIC,"[5]; Without Tween-80, 48 hr",>64/>64 μg/mL
same,MIC,"[6]; ATCC10231, RPMI plus 0.002% Tween-80",0.5 µg/mL
"CC[C@H](C)[C@@H]1NC(=O)[C@@H]2CCCN2C(=O)[C@H](Cc2cccc(-c3cccc4c3cnn4C)c2)N(C)C(=O)[C@H](Cc2ccccc2)NC(=O)[C@H](C(C)C)N(C)C(=O)[C@@H]([C@@H](C)CC)OC(=O)[C@H](C(C)(C)O)N(C)C(=O)[C@H](CC(C)C)NC(=O)[C@H](C(C)C)N(C)C1=O [Compound 14] (cyclo(F[X23]PI[NMeV]L[NMeVal(β-OH)][Hmp(2R,3S)][NMeV]))",MIC,[7]; [14],0.5 µg/mL
same,MIC,[1]; [15],0.12 µg/mL
same,MIC,[1]; [16],1 µg/mL
same,minimal effective concentration,"[2]; MMX5948, RPMI plus 0.002% Tween-80, 48 hr",> 64 µg/mL
same,MIC,"[2]; MMX5948, RPMI plus 0.002% Tween-80, 48 hr, read-out: MIC",> 64 µg/mL
same,MEC,[8]; [13],1 µg/mL
same,MIC,[8]; [13],8 µg/mL
same,minimal effective concentration,[9]; [13],1 µg/mL
same,MIC,[9]; [17],> 64 µg/mL
same,minimal effective concentration,"[3]; ATCC13073, RPMI plus 0.002% Tween-80, 48 hr, read-out: MEC",0.25 µg/mL
same,MIC,"[3]; ATCC13073, RPMI plus 0.002% Tween-80, 48 hr, read-out: MIC",> 64 µg/mL
same,minimal effective concentration,[10]; [13],1 µg/mL
same,MIC,[10]; [17],> 64 µg/mL
same,minimal effective concentration,"[4]; Aspergillus niger, ATCC16888, RPMI plus 0.002% Tween-80, 48 hr, read-out: MEC",0.12 µg/mL
same,MIC,"[4]; Aspergillus niger, ATCC16888, RPMI plus 0.002% Tween-80, 48 hr, read-out: MIC",0.12 µg/mL
same,minimal effective concentration,[5]; [18],0.5 µg/mL
same,minimal effective concentration,[5]; [19],2 µg/mL
same,MIC,"[5]; Aspergillus fumigatus, RPMI plus 0.002% Tween-80, 48 hr, read-out: MIC",> 64 µg/mL
same,MIC,"[5]; Without Tween-80, 48 hr",> 64 µg/mL
same,MIC,"[6]; ATCC10231, RPMI plus 0.002% Tween-80, read-out: MIC",0.03 µg/mL
"CC[C@H](C)[C@@H]1NC(=O)[C@@H]2CCCN2C(=O)[C@H](Cc2cccc(-c3ccc(N4CCN(C)CC4)cc3)c2)N(C)C(=O)[C@H](Cc2ccccc2)NC(=O)[C@H](C(C)C)N(C)C(=O)[C@@H]([C@@H](C)CC)OC(=O)[C@H](C(C)(C)O)N(C)C(=O)[C@H](CC(C)C)NC(=O)[C@H](C(C)C)N(C)C1=O [Compound 19] (cyclo(F[X2]PI[NMeV]L[NMeVal(β-OH)][Hmp(2R,3S)][NMeV]))",MIC,[11],0.015 µg/mL
same,MIC,"[7]; ATCC90112, 72 h, 72 hour, RPMI plus 0.002% Tween-80",0.06 µg/mL
same,MIC,[7]; [14],0.03 µg/mL
same,MIC,[1]; [15],0.03 µg/mL
same,MIC,[1]; [16],1 µg/mL
same,MIC,[1]; Without Tween-80,2 µg/mL
same,minimal effective concentration,[2]; [12],0.008 µg/mL
same,MIC,"[2]; MMX5948, 48 h, RPMI plus 0.002% Tween-80, read-out: MIC",0.015 µg/mL
same,minimal effective concentration,"[8]; Aspergillus fumigatus, MMX5944, 48 h, RPMI plus 0.002% Tween-80",0.015 µg/mL
same,MIC,"[8]; Aspergillus fumigatus, MMX5944, 48 h, RPMI plus 0.002% Tween-80, read-out: MIC",0.06 µg/mL
same,MEC,[8]; [13],0.015 µg/mL
same,MIC,[9]; [20],0.12 µg/mL
same,minimal effective concentration,[9]; [13],0.06 µg/mL
same,minimal effective concentration,"[3]; ATCC13073, 48 h, RPMI plus 0.002% Tween-80, read-out: MEC",0.03 µg/mL
same,MIC,"[3]; ATCC13073, 48 h, RPMI plus 0.002% Tween-80, read-out: MIC",0.12 µg/mL
same,minimal effective concentration,"[10]; 48 h, RPMI plus 0.002% Tween-80",0.06 µg/mL
same,MIC,[10]; [20],0.25 µg/mL
same,minimal effective concentration,"[4]; Aspergillus niger, ATCC16888, 48 h, RPMI plus 0.002% Tween-80, read-out: MEC",0.008 µg/mL
same,MIC,"[4]; Aspergillus niger, ATCC16888, 48 h, RPMI plus 0.002% Tween-80, read-out: MIC",0.015 µg/mL
same,MIC,[4]; [13],0.015 µg/mL
same,minimal effective concentration,[5]; [18],0.06 µg/mL
same,MIC,"[5]; Aspergillus fumigatus, 48 h, RPMI plus 0.002% Tween-80, read-out: MIC",0.25 µg/mL
same,minimal effective concentration,[5]; [19],0.5 µg/mL
same,MIC,"[5]; Aspergillus fumigatus, 48 h, Without Tween-80, read-out: MIC",1 µg/mL
same,MEC,"[5]; Without Tween-80, 48 hr",1 µg/mL
same,MIC,"[5]; Without Tween-80, 48 hr",2 µg/mL
same,MIC,"[6]; ATCC10231, Without Tween-80, read-out: MIC",0.5 µg/mL
